Experimental data: ChEMBL document CHEMBL1201862, “PubChem BioAssay data set” (2004)
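Test compounds were applied to cells in 96-well plates for 48 hours at 5 doses. The concentration for 50% growth inhibition is given as GI50.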 The source made the active and inactive calls. Cut-off read from the data, not from the text of the source: active = GI50 up to about 1.1 µM and inactive = higher.

What was measured:
Assay in all cases: NCI tumour cell line growth inhibition, 48 h
SNB-75 = test system: SNB-75
SF-539 = test system: SF-539
K562 = test system: K562
TK-10 = test system: TK-10
NCI/ADR-RES = test system: NCI/ADR-RES
SF-268 = test system: SF-268
RPMI-8226 = test system: RPMI-8226
UACC-257 = test system: UACC-257
SF-295 = test system: SF-295
SK-MEL-5 = test system: SK-MEL-5
HOP-92 = test system: HOP-92
SK-OV-3 = test system: SK-OV-3
OVCAR-4 = test system: OVCAR-4
NCI-H226 = test system: NCI-H226
RXF 393 = test system: RXF 393
MDA-MB-435 = test system: MDA-MB-435
MCF7 = test system: MCF7
UO-31 = test system: UO-31
NCI-H460 = test system: NCI-H460
OVCAR-5 = test system: OVCAR-5

Measured: GI50

COC(=O)C1=C(O)C(C(=O)OC)[C@]2(O)[C@H](C(=O)OC)[C@H]1C[C@@H](c1ccc(C(F)(F)F)cc1)[C@H]2C(=O)OC (stereo not given in full)
inactive: SNB-75 4.13 µM | SF-539 1.59 µM | K562 2.62 µM | TK-10 4.73 µM | NCI/ADR-RES 2.33 µM | SF-268 4.47 µM | RPMI-8226 2.51 µM | UACC-257 4.6 µM | SF-295 4 µM | SK-MEL-5 2.49 µM | HOP-92 5.27 µM | SK-OV-3 6.35 µM | OVCAR-4 5.55 µM | NCI-H226 1.33 µM | RXF 393 2.17 µM | MDA-MB-435 3.36 µM | MCF7 3.5 µM | UO-31 2.84 µM | NCI-H460 3.34 µM | OVCAR-5 3.63 µM

Cc1ccccc1OC(C)C(=O)NN1C(=O)CC(=O)N(c2ccc(Cl)cc2)C1=S (stereo not given)
inactive: SNB-75 35 µM | SF-539 46.1 µM | K562 38.6 µM | TK-10 44 µM | NCI/ADR-RES 29.4 µM | SF-268 50.9 µM | RPMI-8226 34.4 µM | UACC-257 30 µM | SF-295 36.8 µM | SK-MEL-5 25.1 µM | HOP-92 19.3 µM | SK-OV-3 48.2 µM | OVCAR-4 38.5 µM | NCI-H226 31.5 µM | RXF 393 25 µM | MDA-MB-435 49.3 µM | MCF7 31.3 µM | UO-31 41 µM | NCI-H460 31 µM | OVCAR-5 61.2 µM
